Results reported in publication PMC4001449, “Thienoquinolines as Novel Disruptors of the PKCε/RACK2 Protein–Protein Interaction” (Journal of Medicinal Chemistry, 2014).

What was measured:
PKCε [1] = experiment: PKCε translocation by immunofluorescence in PC-3 cells; assay type: cell-based, human; details: Figure 4
Method: PC-3 cells were grown on glass coverslips coated with poly-L-lysine (Sigma-Aldrich). After treatment with 8 for 30 min and with 100 nM TPA for 5 min, the cells were rinsed twice with phosphate buffered saline (PBS) and fixed with filter sterilized 4% (w/v) paraformaldehyde/4% sucrose (w/v) (both from Sigma-Aldrich) in PBS at room temperature for 10 min. Subsequently the cells were washed three times with PBS and permeabilized with 0.2% Triton X-100/0.2% IgG-free BSA in PBS at room temperature for 10 min. After blocking with 5% normal goat serum diluted in PBS as described above for 30 min, cells were incubated with the primary antibodies for PKCε (Santa Cruz; diluted 1:500) in 0.2% Triton X-100/0.2% IgG-free BSA in PBS at 4 °C overnight. Subsequently, the cells were washed three times with the same buffer and incubated with the labeled secondary antibody (Alexa Fluor, Invitrogen, Life Technologies, Carlsbad, CA; 1:4000) at room temperature for 1 h. After three more washes with 0.2% Triton X-100/0.2% IgG-free BSA in PBS, cells were mounted with Mowiol (Sigma-Aldrich) and images were taken with an Olympus BX 50 optical microscope (Olympus Corporation, Tokyo, Japan).

MARCKS phosphorylation = MARCKS phosphorylation in HeLa cells (Western blot); assay type: cell-based; details: 50 μM for 30 min, 100 nM TPA last 10 min
Method: Figure 6 Compound 8 inhibits MARCKS phosphorylation, cell proliferation, and invasion following treatment with 8. (A) HeLa cells were starved for 16 h in medium without fetal calf serum. Subsequently, they were treated with 50 μM solution of compound 8 for 30 min and 100 nM TPA for the last 10 min. An amount of 150 μg of protein from lysed cells was loaded onto SDS 8–16% gels. Tubulin was used as loading control. Below a representative blot, a bar graph corresponding to quantitative scans of three independent experiments (±SD) is shown. (B) Cell proliferation following treatment of HeLa and PC-3 cells with 8. The mean values (±SD) of three independent experiments, in which three samples were taken within each experiment, are shown. (C) Invasion of cells through a membrane. Cell invasion was determined as described in Experimental Section. In HeLa cells with a doxycycline-inducible PKCε the expression of PKCε was induced with doxycycline (control + Dox). The mean of three experiments (±SD) is shown: (∗) p = 0.03. The data are normalized to the control (100%). Therefore, the standard deviation for the control is 0.
For PKCε translocation PC-3 cells were starved for 16 h, treated with 8 for 30 min, stimulated with 50 nM TPA for 5 min, lysed, and fractionated with a CNMCS/CNM compartmental protein extraction kit (BioChain Institute, Newark, CA). […]

HeLa-HLR cells = experiment: Cell proliferation (SRB assay), HeLa-HLR; assay type: cell-based; details: 50 μM, 72 h
Method: HeLa cells containing a tetracycline/doxycycline-inducible constitutively active PKCε were described previously.[26] A PathDetect HeLa HLR cell line was obtained from Agilent, Technologies, Wokingham, U.K. PC-3 prostate adenocarcinoma cells were obtained from Dr. Helmut Klocker, Department of Urology, Innsbruck Medical University. For cell proliferation HeLa HLR and PC-3 cells were seeded at ∼10 000 cells per well in 96-well plates. After 4 h various concentrations of 8 were added and left for 72 h. Cell proliferation was determined by the SRB assay.[35]

PKCε [2] = molecular target: T1, PKCε (Homo sapiens, UniProt Q02156); experiment: PKC isozyme assay, PKCε; assay type: biochemical; details: 50 µM, Supp. Figure 2
T1 sequence (Q02156 1-737): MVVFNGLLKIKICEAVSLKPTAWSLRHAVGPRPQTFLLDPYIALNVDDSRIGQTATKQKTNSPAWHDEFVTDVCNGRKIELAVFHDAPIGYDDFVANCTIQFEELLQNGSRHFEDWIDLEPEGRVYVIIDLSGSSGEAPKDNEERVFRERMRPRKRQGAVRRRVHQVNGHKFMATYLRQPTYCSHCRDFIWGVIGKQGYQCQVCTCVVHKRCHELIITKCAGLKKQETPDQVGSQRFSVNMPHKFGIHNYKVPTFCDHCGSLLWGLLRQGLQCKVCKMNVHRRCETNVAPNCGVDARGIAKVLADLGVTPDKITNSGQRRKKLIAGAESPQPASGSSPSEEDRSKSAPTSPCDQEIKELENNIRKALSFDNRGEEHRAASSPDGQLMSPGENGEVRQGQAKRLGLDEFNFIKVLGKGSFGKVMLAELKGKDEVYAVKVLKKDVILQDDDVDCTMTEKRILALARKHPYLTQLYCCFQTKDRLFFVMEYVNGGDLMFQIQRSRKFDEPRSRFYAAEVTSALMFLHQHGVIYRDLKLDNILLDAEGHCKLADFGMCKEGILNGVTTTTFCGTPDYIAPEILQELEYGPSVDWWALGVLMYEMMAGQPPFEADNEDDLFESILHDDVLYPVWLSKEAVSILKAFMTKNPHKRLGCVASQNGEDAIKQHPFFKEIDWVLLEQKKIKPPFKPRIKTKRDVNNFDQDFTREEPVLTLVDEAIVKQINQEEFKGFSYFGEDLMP
Method: Supporting Information Figure 2. Effect of compound 8 on PKC isozymes. 50 µM of compound
8 were used in the PKC assays as described in Gruber et al., J. Biochem. 2011, 149, 331-336. *p
= 0.015, **p = 0.0028, ***p = 0.0007. The control is standardized (100%). Therefore, the
standard deviation for the control is 0.
(1 picture or pasted object on this page, not shown here)

RSK2 = RSK2 (Homo sapiens, UniProt P51812); experiment: Kinase profiling (Dundee), RSK2; assay type: biochemical; details: 25 μM solution
[3] = test system: 109 different protein kinases; experiment: Screen of 109 kinases (Dundee); assay type: biochemical; details: 25 μM solution; many kinases

RSK2, sequence (P51812 whole entry, species assumed): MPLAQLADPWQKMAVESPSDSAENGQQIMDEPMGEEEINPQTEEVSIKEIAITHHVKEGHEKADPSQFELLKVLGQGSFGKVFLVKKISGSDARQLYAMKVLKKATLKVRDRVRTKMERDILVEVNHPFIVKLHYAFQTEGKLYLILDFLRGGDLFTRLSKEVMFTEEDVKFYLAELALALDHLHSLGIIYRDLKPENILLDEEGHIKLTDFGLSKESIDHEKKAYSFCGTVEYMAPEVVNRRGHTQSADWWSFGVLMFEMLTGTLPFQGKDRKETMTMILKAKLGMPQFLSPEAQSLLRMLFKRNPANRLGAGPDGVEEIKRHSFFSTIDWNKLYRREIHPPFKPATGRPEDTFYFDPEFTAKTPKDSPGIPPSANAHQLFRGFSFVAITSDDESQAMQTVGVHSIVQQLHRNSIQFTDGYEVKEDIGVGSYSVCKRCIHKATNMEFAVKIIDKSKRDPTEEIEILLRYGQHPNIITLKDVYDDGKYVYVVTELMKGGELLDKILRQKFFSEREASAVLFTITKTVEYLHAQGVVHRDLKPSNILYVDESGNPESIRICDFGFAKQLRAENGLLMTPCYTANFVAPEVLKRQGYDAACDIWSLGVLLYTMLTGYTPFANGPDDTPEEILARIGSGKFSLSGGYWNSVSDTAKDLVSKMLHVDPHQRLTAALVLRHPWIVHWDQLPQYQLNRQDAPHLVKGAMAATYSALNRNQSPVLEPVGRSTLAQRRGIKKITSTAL

SMILES: CC(=O)c1cccc(NC(=O)c2sc3nc4cc5c(cc4cc3c2N)OCCO5)c1 [Compound 8, N-(3-acetylphenyl)-9-amino-2,3-dihydro-1,4-dioxino[2,3-g]thieno[2,3-b]quinoline-8-carboxamide]
- TPA-induced PKCε translocation to the plasma membrane (immunocytochemistry) (PKCε [1]): prevented
- Phosphorylation of MARCKS (MARCKS phosphorylation): inhibited
- Inhibition of cell proliferation (HeLa-HLR cells): did not show any inhibition
- Inhibition of PKCε in vitro (PKCε [2]): does not inhibit
- RSK2 activity, % of control (RSK2): 27 % of control
- Effect on kinases in a screen of 109 kinases [3]: not or only slightly affected
